From patent US11339163B2, “BRaf inhibitors and use thereof for treatment of cutaneous reactions” (Lutris Pharma Ltd., priority 2017, dated 2022)

Assays:
Assay in all cases: KinaseProfiler kinase selectivity assay
Format in all cases: biochemical
ASK1(h) = ASK1(h) (Homo sapiens, UniProt Q99683)
Description: (§1) All compounds were prepared to 50× final assay concentration in 100% DMSO. This working stock of the compound was added to the assay well as the first component in the reaction, followed by the remaining components. In the standard KinaseProfiler™ service, there is no pre-incubation step between the compound and the kinase prior to initiation of the reaction. The positive control wells contain all components of the reaction, except the compound of interest; however, DMSO (at a final concentration of 2%) is included in these wells to control for solvent effects. The blank wells contain all components of the reaction, with a reference inhibitor replacing the compound of interest. This abolishes kinase activity and establishes the base-line (0% kinase activity remaining).

eEF-2K(h) = eEF-2K(h) (Homo sapiens, UniProt O00418)
Description: as §1

ALK(h) = ALK(h) (Homo sapiens, UniProt Q9UM73)
Description: as §1

PKCθ(h) = PKCθ(h) (Homo sapiens, UniProt Q04759)
Description: as §1

p70S6K(h) = p70S6K(h) (Homo sapiens, UniProt P23443)
Description: as §1

LOK(h) = LOK(h) (Homo sapiens, UniProt O94804)
Description: as §1

MAPKAP-K2(h) = MAPKAP-K2(h) (Homo sapiens, UniProt P49137)
Description: as §1

IGF-1R(h) = IGF-1R(h) (Homo sapiens, UniProt P08069)
Description: as §1

IKKα(h) = IKKα(h) (Homo sapiens, UniProt O15111)
Description: as §1

AMPKα1(h) = AMPKα1(h) (Homo sapiens, UniProt Q13131)
Chain of AMPKα1(h) (Q13131 whole entry): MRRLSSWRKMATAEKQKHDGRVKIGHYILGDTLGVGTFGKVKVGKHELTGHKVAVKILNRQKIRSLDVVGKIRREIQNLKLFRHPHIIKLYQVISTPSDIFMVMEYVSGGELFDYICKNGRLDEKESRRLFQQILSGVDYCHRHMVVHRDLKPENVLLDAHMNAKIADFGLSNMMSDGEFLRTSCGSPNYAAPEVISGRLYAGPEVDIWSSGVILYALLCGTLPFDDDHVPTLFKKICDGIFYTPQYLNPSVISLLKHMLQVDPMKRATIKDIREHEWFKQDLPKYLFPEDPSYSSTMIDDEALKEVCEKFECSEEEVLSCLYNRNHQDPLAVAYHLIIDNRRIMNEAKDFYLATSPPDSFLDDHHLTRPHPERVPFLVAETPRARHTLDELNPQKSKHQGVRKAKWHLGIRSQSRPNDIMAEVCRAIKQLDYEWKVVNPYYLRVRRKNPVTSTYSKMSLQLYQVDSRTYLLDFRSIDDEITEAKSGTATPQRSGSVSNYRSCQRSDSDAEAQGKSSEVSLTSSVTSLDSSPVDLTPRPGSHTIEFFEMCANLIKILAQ
Chain of AMPKα1(h) (Q9Y478 whole entry partner): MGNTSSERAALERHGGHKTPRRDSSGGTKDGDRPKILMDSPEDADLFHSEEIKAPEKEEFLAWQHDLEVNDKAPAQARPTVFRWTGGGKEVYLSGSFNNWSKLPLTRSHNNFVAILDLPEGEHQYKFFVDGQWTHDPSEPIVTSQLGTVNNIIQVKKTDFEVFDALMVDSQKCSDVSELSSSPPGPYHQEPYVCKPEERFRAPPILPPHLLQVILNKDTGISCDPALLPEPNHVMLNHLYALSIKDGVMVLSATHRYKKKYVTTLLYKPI
Chain of AMPKα1(h) (P54619 whole entry partner): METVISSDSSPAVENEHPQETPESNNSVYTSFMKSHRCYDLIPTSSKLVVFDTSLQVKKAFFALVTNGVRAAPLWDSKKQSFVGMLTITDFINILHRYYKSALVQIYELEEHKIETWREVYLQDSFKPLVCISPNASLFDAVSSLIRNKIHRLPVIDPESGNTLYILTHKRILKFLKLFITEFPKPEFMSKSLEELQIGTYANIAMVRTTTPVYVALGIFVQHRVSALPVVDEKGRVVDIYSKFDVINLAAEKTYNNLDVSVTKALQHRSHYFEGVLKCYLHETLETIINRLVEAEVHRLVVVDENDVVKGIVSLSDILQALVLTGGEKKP
Description: as §1

EGFR(h) = EGFR(h) (Homo sapiens, UniProt P00533)
Description: as §1

TAK1(h) = TAK1(h) (Homo sapiens, UniProt O43318)
Chain of TAK1(h) (O43318 1-303 limits assumed): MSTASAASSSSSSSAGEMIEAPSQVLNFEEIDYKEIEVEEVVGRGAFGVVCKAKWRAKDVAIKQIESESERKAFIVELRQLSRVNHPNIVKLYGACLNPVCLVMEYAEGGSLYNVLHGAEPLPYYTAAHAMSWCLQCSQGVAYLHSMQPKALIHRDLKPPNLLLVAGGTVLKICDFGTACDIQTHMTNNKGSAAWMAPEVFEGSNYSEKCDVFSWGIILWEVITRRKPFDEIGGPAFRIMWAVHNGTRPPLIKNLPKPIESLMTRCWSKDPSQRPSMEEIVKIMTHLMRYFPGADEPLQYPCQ
Description: as §1

PKA(h) = PKA(h) (Homo sapiens, UniProt P17612)
Description: as §1

c-RAF(h) = c-RAF(h) (Homo sapiens, UniProt P04049)
Chain of c-RAF(h) (P04049 whole entry): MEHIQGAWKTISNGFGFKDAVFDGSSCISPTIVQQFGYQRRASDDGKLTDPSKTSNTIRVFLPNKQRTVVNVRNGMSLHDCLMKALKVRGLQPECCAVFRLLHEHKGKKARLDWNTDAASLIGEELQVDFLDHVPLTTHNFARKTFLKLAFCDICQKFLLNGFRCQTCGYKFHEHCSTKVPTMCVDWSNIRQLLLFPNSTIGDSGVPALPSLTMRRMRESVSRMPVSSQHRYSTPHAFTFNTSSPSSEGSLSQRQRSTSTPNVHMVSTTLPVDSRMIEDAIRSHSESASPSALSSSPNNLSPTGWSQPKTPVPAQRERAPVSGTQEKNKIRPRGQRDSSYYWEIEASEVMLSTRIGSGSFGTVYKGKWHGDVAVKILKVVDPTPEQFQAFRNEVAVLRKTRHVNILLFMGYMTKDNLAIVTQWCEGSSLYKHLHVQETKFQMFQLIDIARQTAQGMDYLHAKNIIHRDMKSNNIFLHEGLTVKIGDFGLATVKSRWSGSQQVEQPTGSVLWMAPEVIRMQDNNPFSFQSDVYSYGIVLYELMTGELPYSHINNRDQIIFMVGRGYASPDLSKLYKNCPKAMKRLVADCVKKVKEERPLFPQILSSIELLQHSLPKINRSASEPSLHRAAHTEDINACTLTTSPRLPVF
Description: as §1

MKK7β(h) = MKK7β(h) (Homo sapiens, UniProt O14733)
Description: as §1

SAPK2a(h) = SAPK2a(h) (Homo sapiens, UniProt Q16539)
Chain of SAPK2a(h) (Q16539 whole entry): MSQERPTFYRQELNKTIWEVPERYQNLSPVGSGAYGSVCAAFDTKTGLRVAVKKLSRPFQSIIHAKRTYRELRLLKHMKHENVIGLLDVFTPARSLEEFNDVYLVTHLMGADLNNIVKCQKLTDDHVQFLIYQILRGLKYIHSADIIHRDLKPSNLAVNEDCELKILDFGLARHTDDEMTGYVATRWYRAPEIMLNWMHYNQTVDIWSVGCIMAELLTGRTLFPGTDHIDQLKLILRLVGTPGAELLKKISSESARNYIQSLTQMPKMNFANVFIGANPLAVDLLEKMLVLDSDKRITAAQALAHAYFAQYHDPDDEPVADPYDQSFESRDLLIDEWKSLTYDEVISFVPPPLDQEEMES
Description: as §1

Plk3(h) = Plk3(h) (Homo sapiens, UniProt Q9H4B4)
Chain of Plk3(h) (Q9H4B4 whole entry): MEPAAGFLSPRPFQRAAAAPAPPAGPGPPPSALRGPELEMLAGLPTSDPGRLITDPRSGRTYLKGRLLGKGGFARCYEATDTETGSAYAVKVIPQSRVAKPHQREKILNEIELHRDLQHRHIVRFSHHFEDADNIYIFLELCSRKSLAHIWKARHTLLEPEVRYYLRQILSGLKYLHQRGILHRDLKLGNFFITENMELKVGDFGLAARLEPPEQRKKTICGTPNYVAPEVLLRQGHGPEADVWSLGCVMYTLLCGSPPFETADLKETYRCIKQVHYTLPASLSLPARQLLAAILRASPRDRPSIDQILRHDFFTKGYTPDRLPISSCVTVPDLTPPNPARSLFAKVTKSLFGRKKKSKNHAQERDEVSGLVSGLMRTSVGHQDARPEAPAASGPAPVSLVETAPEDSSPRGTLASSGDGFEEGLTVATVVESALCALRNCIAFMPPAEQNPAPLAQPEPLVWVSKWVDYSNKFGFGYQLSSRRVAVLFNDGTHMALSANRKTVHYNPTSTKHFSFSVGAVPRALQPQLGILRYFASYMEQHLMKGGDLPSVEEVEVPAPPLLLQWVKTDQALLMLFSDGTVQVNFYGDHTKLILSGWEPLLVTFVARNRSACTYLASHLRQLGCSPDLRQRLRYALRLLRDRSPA
Description: as §1

GSK3β(h) = GSK3β(h) (Homo sapiens, UniProt P49841)
Chain of GSK3β(h) (P49841 whole entry): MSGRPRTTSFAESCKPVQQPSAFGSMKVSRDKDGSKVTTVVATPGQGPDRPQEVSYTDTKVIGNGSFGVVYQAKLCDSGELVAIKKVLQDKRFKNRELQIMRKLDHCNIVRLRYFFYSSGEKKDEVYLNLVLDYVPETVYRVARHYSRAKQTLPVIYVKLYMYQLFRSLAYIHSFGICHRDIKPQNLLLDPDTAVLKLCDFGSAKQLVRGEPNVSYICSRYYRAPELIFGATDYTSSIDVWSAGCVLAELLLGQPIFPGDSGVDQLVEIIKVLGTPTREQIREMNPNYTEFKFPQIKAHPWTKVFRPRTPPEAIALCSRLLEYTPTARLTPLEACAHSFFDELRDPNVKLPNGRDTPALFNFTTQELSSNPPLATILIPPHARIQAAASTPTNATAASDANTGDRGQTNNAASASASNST
Description: as §1

PAK2(h) = PAK2(h) (Homo sapiens, UniProt Q13177)
Description: as §1

PKG1α(h) = PKG1α(h) (Homo sapiens, UniProt Q13976)
Description: as §1

DRAK1(h) = DRAK1(h) (Homo sapiens, UniProt Q9UEE5)
Chain of DRAK1(h) (Q9UEE5 whole entry): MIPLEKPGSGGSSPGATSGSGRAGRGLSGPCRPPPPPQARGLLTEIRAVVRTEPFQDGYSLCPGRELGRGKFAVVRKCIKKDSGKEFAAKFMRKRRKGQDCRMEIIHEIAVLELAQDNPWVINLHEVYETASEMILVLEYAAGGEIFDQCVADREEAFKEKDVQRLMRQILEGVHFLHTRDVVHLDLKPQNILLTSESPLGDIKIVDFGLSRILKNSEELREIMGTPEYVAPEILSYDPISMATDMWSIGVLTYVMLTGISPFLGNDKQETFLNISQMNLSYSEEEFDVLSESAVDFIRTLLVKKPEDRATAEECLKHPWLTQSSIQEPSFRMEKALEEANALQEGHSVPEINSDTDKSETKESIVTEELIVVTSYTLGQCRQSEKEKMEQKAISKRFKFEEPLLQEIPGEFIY
Description: as §1

[1] = molecular target: PI3 Kinase (p110β/p85α)(h) (Homo sapiens, UniProt P42338)
Description: as §1

EphB4(h) = EphB4(h) (Homo sapiens, UniProt P54760)
Description: as §1

CDK2/cyclinA(h) = CDK2/cyclinA(h) (Homo sapiens, UniProt P24941)
Description: as §1

ROCK-I(h) = ROCK-I(h) (Homo sapiens, UniProt Q13464)
Description: as §1

CHK1(h) = CHK1(h) (Homo sapiens, UniProt O14757)
Description: as §1

NEK2(h) = NEK2(h) (Homo sapiens, UniProt P51955)
Description: as §1

Aurora-A(h) = Aurora-A(h) (Homo sapiens, UniProt O14965)
Description: as §1

MSK2(h) = MSK2(h) (Homo sapiens, UniProt O75676)
Chain of MSK2(h) (O75676 whole entry): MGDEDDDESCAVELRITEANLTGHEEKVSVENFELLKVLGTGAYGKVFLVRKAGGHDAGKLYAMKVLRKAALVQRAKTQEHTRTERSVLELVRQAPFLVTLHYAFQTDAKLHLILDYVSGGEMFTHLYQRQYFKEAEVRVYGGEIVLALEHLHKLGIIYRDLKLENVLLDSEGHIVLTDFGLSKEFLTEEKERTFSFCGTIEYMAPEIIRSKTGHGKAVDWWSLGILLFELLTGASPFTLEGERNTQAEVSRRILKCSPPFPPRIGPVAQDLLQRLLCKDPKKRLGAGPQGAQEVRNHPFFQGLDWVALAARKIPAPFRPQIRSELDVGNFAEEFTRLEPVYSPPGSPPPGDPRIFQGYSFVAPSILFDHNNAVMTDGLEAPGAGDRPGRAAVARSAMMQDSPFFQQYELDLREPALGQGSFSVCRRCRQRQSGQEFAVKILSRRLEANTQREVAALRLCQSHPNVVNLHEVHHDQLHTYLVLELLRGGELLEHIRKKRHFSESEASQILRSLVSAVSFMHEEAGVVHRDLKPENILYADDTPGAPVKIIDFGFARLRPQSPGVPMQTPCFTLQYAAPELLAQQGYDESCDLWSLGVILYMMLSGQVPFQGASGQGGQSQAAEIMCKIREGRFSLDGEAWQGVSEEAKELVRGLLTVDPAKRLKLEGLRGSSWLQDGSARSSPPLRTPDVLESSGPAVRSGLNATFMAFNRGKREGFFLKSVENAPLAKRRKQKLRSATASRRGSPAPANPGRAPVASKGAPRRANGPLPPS
Description: as §1

EphA5(h) = EphA5(h) (Homo sapiens, UniProt P54756)
Description: as §1

CDK6/cyclinD3(h) = CDK6/cyclinD3(h) (Homo sapiens, UniProt Q00534)
Description: as §1

Cc1ccc2c(Nc3cccc(OC(F)(F)F)c3)nccc2c1Nc1ncccc1-c1ncnc2[nH]cnc12 [LUT014]
remaining activity at 0.01 µM (ASK1(h); Lut014 @ 0.01 μM): 109%
remaining activity at 1 µM (ASK1(h); Lut014 @ 1 μM): 99%
remaining activity at 0.01 µM (eEF-2K(h); Lut014 @ 0.01 μM): 95%
remaining activity at 1 µM (eEF-2K(h); Lut014 @ 1 μM): 106%
remaining activity at 0.01 µM (ALK(h); Lut014 @ 0.01 μM): 150%
remaining activity at 1 µM (ALK(h); Lut014 @ 1 μM): 83%
remaining activity at 0.01 µM (PKCθ(h); Lut014 @ 0.01 μM): 106%
remaining activity at 1 µM (PKCθ(h); Lut014 @ 1 μM): 109%
remaining activity at 0.01 µM (p70S6K(h); Lut014 @ 0.01 μM): 108%
remaining activity at 1 µM (p70S6K(h); Lut014 @ 1 μM): 97%
remaining activity at 0.01 µM (LOK(h); Lut014 @ 0.01 μM): 98%
remaining activity at 1 µM (LOK(h); Lut014 @ 1 μM): 83%
remaining activity at 0.01 µM (MAPKAP-K2(h); Lut014 @ 0.01 μM): 110%
remaining activity at 1 µM (MAPKAP-K2(h); Lut014 @ 1 μM): 103%
remaining activity at 0.01 µM (IGF-1R(h); Lut014 @ 0.01 μM): 88%
remaining activity at 1 µM (IGF-1R(h); Lut014 @ 1 μM): 86%
remaining activity at 0.01 µM (IKKα(h); Lut014 @ 0.01 μM): 105%
remaining activity at 1 µM (IKKα(h); Lut014 @ 1 μM): 105%
remaining activity at 0.01 µM (AMPKα1(h); Lut014 @ 0.01 μM): 106%
remaining activity at 1 µM (AMPKα1(h); Lut014 @ 1 μM): 114%
remaining activity at 0.01 µM (EGFR(h); Lut014 @ 0.01 μM): 98%
remaining activity at 1 µM (EGFR(h); Lut014 @ 1 μM): 100%
remaining activity at 0.01 µM (TAK1(h); Lut014 @ 0.01 μM): 91%
remaining activity at 1 µM (TAK1(h); Lut014 @ 1 μM): 97%
remaining activity at 0.01 µM (PKA(h); Lut014 @ 0.01 μM): 114%
remaining activity at 1 µM (PKA(h); Lut014 @ 1 μM): 106%
remaining activity at 0.01 µM (c-RAF(h); Lut014 @ 0.01 μM): 105%
remaining activity at 1 µM (c-RAF(h); Lut014 @ 1 μM): 30%
remaining activity at 0.01 µM (MKK7β(h); Lut014 @ 0.01 μM): 100%
remaining activity at 1 µM (MKK7β(h); Lut014 @ 1 μM): 103%
remaining activity at 0.01 µM (SAPK2a(h); Lut014 @ 0.01 μM): 97%
remaining activity at 1 µM (SAPK2a(h); Lut014 @ 1 μM): 54%
remaining activity at 0.01 µM (Plk3(h); Lut014 @ 0.01 μM): 85%
remaining activity at 1 µM (Plk3(h); Lut014 @ 1 μM): 87%
remaining activity at 0.01 µM (GSK3β(h); Lut014 @ 0.01 μM): 105%
remaining activity at 1 µM (GSK3β(h); Lut014 @ 1 μM): 98%
remaining activity at 0.01 µM (PAK2(h); Lut014 @ 0.01 μM): 95%
remaining activity at 1 µM (PAK2(h); Lut014 @ 1 μM): 111%
remaining activity at 0.01 µM (PKG1α(h); Lut014 @ 0.01 μM): 99%
remaining activity at 1 µM (PKG1α(h); Lut014 @ 1 μM): 111%
remaining activity at 0.01 µM (DRAK1(h); Lut014 @ 0.01 μM): 99%
remaining activity at 1 µM (DRAK1(h); Lut014 @ 1 μM): 117%
remaining activity at 0.01 µM ([1]; Lut014 @ 0.01 μM): 101%
remaining activity at 1 µM ([1]; Lut014 @ 1 μM): 95%
remaining activity at 0.01 µM (EphB4(h); Lut014 @ 0.01 μM): 93%
remaining activity at 1 µM (EphB4(h); Lut014 @ 1 μM): 38%
remaining activity at 0.01 µM (CDK2/cyclinA(h); Lut014 @ 0.01 μM): 106%
remaining activity at 1 µM (CDK2/cyclinA(h); Lut014 @ 1 μM): 95%
remaining activity at 0.01 µM (ROCK-I(h); Lut014 @ 0.01 μM): 107%
remaining activity at 1 µM (ROCK-I(h); Lut014 @ 1 μM): 107%
remaining activity at 0.01 µM (CHK1(h); Lut014 @ 0.01 μM): 100%
remaining activity at 1 µM (CHK1(h); Lut014 @ 1 μM): 114%
remaining activity at 0.01 µM (NEK2(h); Lut014 @ 0.01 μM): 98%
remaining activity at 1 µM (NEK2(h); Lut014 @ 1 μM): 125%
remaining activity at 0.01 µM (Aurora-A(h); Lut014 @ 0.01 μM): 95%
remaining activity at 1 µM (Aurora-A(h); Lut014 @ 1 μM): 97%
remaining activity at 0.01 µM (MSK2(h); Lut014 @ 0.01 μM): 92%
remaining activity at 1 µM (MSK2(h); Lut014 @ 1 μM): 96%
remaining activity at 0.01 µM (EphA5(h); Lut014 @ 0.01 μM): 99%
remaining activity at 1 µM (EphA5(h); Lut014 @ 1 μM): 56%
remaining activity at 0.01 µM (CDK6/cyclinD3(h); Lut014 @ 0.01 μM): 100%
remaining activity at 1 µM (CDK6/cyclinD3(h); Lut014 @ 1 μM): 103%
